Values of other authors, collected in patent publication US9610289B2, “Combinations of AKT inhibitor compounds and erlotinib, and methods of use” (Genentech, Inc., priority 2011, dated 2017).

Target: T1, topoisomerase I (Homo sapiens, UniProt P11387)
T1 sequence (P11387 1-765): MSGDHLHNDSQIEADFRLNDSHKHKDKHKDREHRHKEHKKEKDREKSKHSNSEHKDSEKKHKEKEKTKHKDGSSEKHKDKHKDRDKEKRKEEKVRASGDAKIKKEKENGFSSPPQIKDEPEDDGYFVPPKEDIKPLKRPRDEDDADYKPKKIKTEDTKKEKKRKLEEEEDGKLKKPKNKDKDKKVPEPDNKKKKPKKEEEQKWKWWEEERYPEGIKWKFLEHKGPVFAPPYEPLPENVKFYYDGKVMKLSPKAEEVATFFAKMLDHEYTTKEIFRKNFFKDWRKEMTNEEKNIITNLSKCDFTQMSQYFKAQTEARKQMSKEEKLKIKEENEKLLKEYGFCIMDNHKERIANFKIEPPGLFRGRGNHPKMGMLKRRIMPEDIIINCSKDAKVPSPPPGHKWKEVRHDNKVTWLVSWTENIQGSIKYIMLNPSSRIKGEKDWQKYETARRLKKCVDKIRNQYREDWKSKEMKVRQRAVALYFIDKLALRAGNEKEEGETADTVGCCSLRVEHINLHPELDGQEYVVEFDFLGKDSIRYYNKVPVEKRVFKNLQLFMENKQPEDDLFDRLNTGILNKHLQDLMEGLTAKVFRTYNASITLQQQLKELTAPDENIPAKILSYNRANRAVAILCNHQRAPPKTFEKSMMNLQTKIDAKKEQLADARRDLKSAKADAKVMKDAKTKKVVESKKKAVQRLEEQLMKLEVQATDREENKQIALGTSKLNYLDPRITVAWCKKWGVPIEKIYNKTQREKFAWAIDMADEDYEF
Settings: active metabolite versus irinotecan

SMILES: CCc1c2c(nc3ccc(O)cc13)-c1cc3c(c(=O)n1C2)COC(=O)[C@]3(O)CC [SN-38, 7-ethyl-10-hydroxy-camptothecin]
- more active than irinotecan itself: 200 times
